Article PMC6411751, “Use of machine learning to identify novel, behaviorally active antagonists of the insect odorant receptor co-receptor (Orco) subunit” (Scientific Reports, 2019)
Counter-ions that a name gives are not always drawn.

Columns and labels:
Format in all cases: in vivo, Drosophila melanogaster
fruit fly antennae = experiment: Electroantennogram (EAG) recordings in adult flies; details: for amplitude of EAG responses to EA and 2 H: adult flies
From the text: Adult flies (w1118 strain, 3–5 days old) were mounted in truncated pipette tips for detection of antennal responses[69],[70]. EAG data were obtained with an IDAC-232 (Syntech), which was linked to a computer via the EAGpro data acquisition interface. SSR data were acquired with an IDAC 4 and AutoSpike (Syntech). Recording and indifferent electrodes were made of silver/silver chloride wires enclosed in glass capillary needles, which were pulled with a Micropipette Puller (P-97, Sutter Instruments Co.) and filled with 1 M potassium chloride in 1% polyvinylpyrrolidone. The indifferent electrode was inserted in the eye of an immobilized fly, while the EAG recording electrode was placed on the third segment of the antenna under a S2X12 Olympus microscope and by using a micromanipulator MP-12 (Syntech). For SSR, the recording electrode was inserted into a desired sensillum under a stage microscope (BX51WI, Olympus) and using a Piezo Manipulator (PM10, World Precision Instrument). The stimulus delivery system consisted of a Stimulus Controller CS-55 (Syntech), which delivered charcoal-filtered, humidified air at 650 mL/min through a stimulus tube (5 cm long; internal diameter, 8 mm). The outlet of the stimulus delivery tube was set 1 cm away from the preparations. Stimulus pulses (0.5 sec) were introduced through a hole in the stimulus delivery tube 2.5 cm away from outlet. A compensatory flow was applied through another hole in the tube (directly across from the stimulus pulse hole). The total flow (continuous plus compensatory or continuous plus stimulus) of 0.6 mL/s was measured at the center of the outlet of the stimulus delivery tube with an Anemometer Lite (Model 6006, Kanomax, Osaka, Japan). 10 µL of the odorants EA and 2 H (freshly diluted to 0.01%, 0.1% or 1% in mineral oil) or the Orco antagonist compounds BMP and LF (freshly diluted to 1% or 50% in mineral oil) were loaded onto filter papers (1 cm^2). The filter papers containing odorants were placed inside of stimulus cartridges. Loading of odorant containing filter papers into the cartridges occurred in ambient air, which could contain trace amounts of odorants. Thus, stimulus pulses with ambient air (filter papers containing mineral oil alone) in the cartridges were used to define a baseline response. For EAG, filter papers containing BMP or LF (50% in mineral oil) were placed inside the main airflow tube 8 cm away from the antenna and odorants were delivered through a hole 2.5 cm away from the outlet. For SSR, BMP (1% in mineral oil) was delivered into the holes 2.5 cm away from the outlet, whereas the odorants were delivered upstream through a hole 4 cm away from the outlet. The different delivery arrangements may contribute to the difference in apparent BMP potency in the EAG and SSR experiments (Figs 6 and 7). Each filter paper was used 3–5 times before being replaced. CO2 was freshly collected into stimulus cartridge from the breath of the same subject (P.X.) and used only once. Spikes were manually counted 0.5 s before and 0.5 s after stimulus and the results presented as poststimulus number of spikes per 0.5 s (number of spikes after stimulus minus number of spikes prior to stimulus). Data were analyzed with One Way ANOVA using Prism 7 (GraphPad).

[1] = system: ab2 sensilla (EA responsive OSN); experiment: Single sensillum recording (SSR), ab2 sensilla, ethyl acetate response
From the text: (§1) Adult flies (w1118 strain, 3–5 days old) were mounted in truncated pipette tips for detection of antennal responses[69],[70]. EAG data were obtained with an IDAC-232 (Syntech), which was linked to a computer via the EAGpro data acquisition interface. SSR data were acquired with an IDAC 4 and AutoSpike (Syntech). Recording and indifferent electrodes were made of silver/silver chloride wires enclosed in glass capillary needles, which were pulled with a Micropipette Puller (P-97, Sutter Instruments Co.) and filled with 1 M potassium chloride in 1% polyvinylpyrrolidone. The indifferent electrode was inserted in the eye of an immobilized fly, while the EAG recording electrode was placed on the third segment of the antenna under a S2X12 Olympus microscope and by using a micromanipulator MP-12 (Syntech). […] The total flow (continuous plus compensatory or continuous plus stimulus) of 0.6 mL/s was measured at the center of the outlet of the stimulus delivery tube with an Anemometer Lite (Model 6006, Kanomax, Osaka, Japan). […] Spikes were manually counted 0.5 s before and 0.5 s after stimulus and the results presented as poststimulus number of spikes per 0.5 s (number of spikes after stimulus minus number of spikes prior to stimulus). Data were analyzed with One Way ANOVA using Prism 7 (GraphPad).

[2] = system: ab1 sensilla (CO2 responsive OSN, Gr21 and Gr63a); experiment: Single sensillum recording (SSR), ab1 sensilla, CO2 response; details: 10 µL of 1% compound in mineral oil
From the text: as §1

D. melanogaster larvae = experiment: Larval chemotaxis assay (attraction to ethyl acetate); details: for larval preference, compound alone vs. mineral oil vehicle: 10 µL of 100 mM on plate filter
Protocol: We have previously provided a detailed description of these methods. Briefly, Canton-S (CS) flies were used as wild type (wt). The experimental chamber was a 100 × 15 mm polystyrene Petri dish (VWR) with 20 mL of 1.1% agarose coating the bottom. In this assay, 50 third-instar larvae were placed inside a “starting circle” at the center of the plate (the circle was drawn on the outside bottom of the plate). A line was also drawn that divided the plate in half. Small filter paper discs (d = 6 mm, Whatman Cellulose Filter Paper, # 1030 023) were placed on opposite sides of the plate (see Fig. 8A). Onto each filter paper disc was placed 10 μL of solution, containing either vehicle of dilution (mineral oil), odorant attractant (EA, diluted in mineral oil) or an Orco antagonist compound (diluted in mineral oil). The sides of the plate on which the compounds or vehicle were placed were alternated from experiment to experiment.
In order to test Orco antagonists for the ability to affect the chemotaxis assay, a large (d = 9 cm) filter paper (Whatman Filter Paper # D00161-S) was adhered with double-sided tape to the inside of the Petri dish lid. This allowed the larvae to be exposed to Orco antagonists in an airborne context. For light repulsion experiments, we used a Zeiss CL6000 LED light source at 76% intensity. Following the 5 min migratory period, plates were photographed, coded and then blind counted. Any larvae still within the starting circle or touching the center line were excluded from the analysis. A Response Index (RI) was calculated as RI = (S − C)/(S + C), where S is the number of larvae on the stimulus (EA) side and C is the number of larvae on the control (mineral oil) side. RI = 1 would indicate complete attraction, RI = −1 would indicate complete repulsion, and RI = 0 would indicate no preference. Statistical significance was assessed using a one-way analysis of the variance followed by Dunnett’s’s post-test.

[3] = 10 µL of 50% compound in mineral oil in main airflow

| Structure (SMILES) | baseline EAG response to ambient air (fruit fly antennae; [3]) | amplitude of EAG responses to EA and 2 H (fruit fly antennae; [3]) | extent of inhibition of EAG responses across 0.01%, 0.1%, 1% 2H (fruit fly antennae; 50% BMP in main airflow, n = 3) | extent of inhibition of EAG responses across 0.01%, 0.1%, 1% EA (fruit fly antennae; 50% BMP in main airflow, n = 3) | odorant agonist activity in EAG (fruit fly antennae; compound alone) | SSR response of ab2 sensilla to EA ([1]; 10 µL of 1% compound in mineral oil, 0.1% EA) | reversibility of effect on ab2 EA response ([1]; subsequent response to EA alone) | SSR response of ab1 sensilla to CO2 [2] | larval attraction to EA with airborne compound (D. melanogaster larvae; 30 mM on lid filter) | larval preference, compound alone vs. mineral oil vehicle (D. melanogaster larvae) | larval attraction to EA with airborne compound (D. melanogaster larvae; 685 µL of 100 mM on lid filter) |
| --- | --- | --- | --- | --- | --- | --- | --- | --- | --- | --- | --- |
| Cc1cccc(C(C)(C)C)c1O [BMP, 2-tert-butyl-6-methylphenol] | significantly reduced the baseline response | significantly reduced the amplitude | did not differ | did not differ | did not act as an odorant agonist | abolished the response | reversible | had no effect on the CO2 response | did not significantly affect attraction to EA | displayed no preference | completely abolished larval attraction to EA |
| C=CC(C)(CCC=C(C)C)OC=O (stereo not drawn) [LF, linalyl formate] | – | did not alter the amplitude | – | – | – | – | – | – | significantly reduce larval attraction to EA | displayed no preference | completely abolished larval attraction to EA |
